Patent US7812042B2, “Pharmaceutical compositions and therapeutic applications for the use of a novel vitamin B12 derivative, N-acetyl-L-cysteinylcobalamin” (priority 2006, dated 2010)
Where “and” joins values, the source holds several entries; their conditions need not be identical. Equal entries are not always repeated. Structures can show the parent of a compound that is named as a salt.

Key:
[1] = test system: SK-HEP-1 cells; assay: Protection of endothelial cells from homocysteine-induced cell death (MTS assay, absorbance at 490 nm; includes comparison of NACCbl, NAC, cyanocobalamin+NAC, free thiols, other cobalamins, folate); type: cell-based, Human; settings: for Absorbance at 490 nm (n = 6): replicates Y1-Y6, listed as Hcy
Procedure: The effect of a constant concentration of NACCbl and GSCbl to protect cells against variable concentrations of homocysteine was assessed. […] Cell viability was determined by MTS® assay. Data shown in FIG. 4 are representative of means ±SE of 6 independent samples. FIG. 4 illustrates that NACCbl (▪) and GSCbl (▴) protect endothelial cells from the effect of homocysteine. […] Cell viability was determined by MTS® assay. […] There was a decrease in protection as homocysteine concentration increased, but there was still ˜60% survival at 50 μM homocysteine.
The data was normalized (log 2 and log 10) as shown in FIGS. 16 and 17 and Tables 16 and 17, respectively, below.

[2] = test system: Hsp32; assay: Hsp32 gene expression in SK-HEP-1 cells (RT-PCR, densitometry); type: cell-based, Human; settings: homocysteine 30 μM, folate 30 μM (2 hr), Sn(IX) protoporphyrin 25 μM, quercitin 15 μM
Procedure: (§1) Cells were plated into 6-, 12-, or 24-well cell culture clusters, at 2×10^3, 2×10^5, or 1×10^5 cells per well and incubated until 90% confluent. Treatments were applied as above.
(§2) Following incubation, cells were subjected to mRNA extraction followed by cDNA synthesis for each sample under test. Polymerase chain reaction cDNA templates were prepared for simplex PCR protocol. PCR products were then visualized using a UV Transilluminator and images captured using a Kodak ID gel imaging system. Densitometry and statistical analysis was then performed on each gene expression band image using PSP® v 10.0 running under Windows XP®.
(§3) mRNA extraction was performed using the Quickprep micro mRNA Purification Kit. Following incubation of cells post-treatment, the media was removed from the cells, adherent cells were re-suspended in 0.4 ml extraction buffer and 0.8 ml elution buffer at 65° C. was added.
A reaction mixture was prepared in individual microcentrifuge tubes containing 2 cDNA synthesis beads, 32 μl of the mRNA solution and 1 μl of pd(N)6. This mixture was incubated at 37° C. in a water bath for 60 minutes. After incubation, 27 μl of RNase-free DEPC treated water was added to each tube to make a total volume 60 μl. cDNA samples were prepared in duplicate. Sample 1 was used immediately in RT-PCR protocol. Sample 2 was prepared for qPCR protocol by the addition of 150 μl of 95% ice-cold ethanol and stored at −20° C.
Microcentrifuge tubes from puReTaq™Ready-To-Go™ PCR Beads containing one PCR bead were labeled for each sample required. Added to the PCR bead were 17 μl of RNase-free DEPC treated water, 1 μl sense primer, 1 μl anti-sense primer and 5 μl of the cDNA solution. RT-PCR conditions were as follows: Hsp70 and β-actin, pre-treatment step, 94° C. for 1 minute, followed by denaturing at 92° C. for 1 minute, annealing at 60° C. for 1 minute and extension at 72° C. for 1 minute. Total cycles, 30, post-treatment was then carried out at 72° C. for 10 minutes. For Hsp32, pre-treatment step, 95° C. for 2 minutes, followed by denaturing at 94° C. for 30 seconds, annealing at 58° C. for 1 minute and extension at 72° C. for 1 minute. Total cycles 45, post treatment was then carried out at 72° C. for 10 minutes. Following RT-PCR, samples were stored at −20° C.
Amplification products were separated on a 1.8% agarose gel (m/v) in TAE buffer. The size of the PCR products was determined by comparison to DNA fragments of a well-defined size; therefore, 5 μl of the DNA Ladder was carefully pipetted into the first well of the gel. Successive 10 μl of each PCR sample was then pipetted into subsequent wells on the agarose gel. The gel was connected to the Power Pack and run at 100V for 30 minutes.
Gels were visualised on a UV Transilluminator. Photographs were stored using a Kodak Digital camera system fitted with a UV filter set connected to a PC. Images were then transferred to the Kodak ID gel imaging system. Densitometry was performed on each gene expression band using PSP™ v10 running under Windows XP®.
Experiments were conducted using Hsp32 and Hsp 70 gene expression as the basis for study. […] (all treatments for 2 hours).

[3] = test system: Hsp70; settings: SK-HEP-1; homocysteine 30 μM, folate 30 μM (2 hr), quercitin 15 μM
Procedure: as §1, §2, §3
A reaction mixture was prepared in individual microcentrifuge tubes containing 2 cDNA synthesis beads, 32 μl of the mRNA solution and 1 μl of pd(N)6. This mixture was incubated at 37° C. in a water bath for 60 minutes. After incubation, 27 μl of RNase-free DEPC treated water was added to each tube to make a total volume 60 μl. cDNA samples were prepared in duplicate. Sample 1 was used immediately in RT-PCR protocol.
Microcentrifuge tubes from puReTaq™Ready-To-Go™ PCR Beads containing one PCR bead were labeled for each sample required. Added to the PCR bead were 17 μl of RNase-free DEPC treated water, 1 μl sense primer, 1 μl anti-sense primer and 5 μl of the cDNA solution. RT-PCR conditions were as follows: Hsp70 and β-actin, pre-treatment step, 94° C. for 1 minute, followed by denaturing at 92° C. for 1 minute, annealing at 60° C. for 1 minute and extension at 72° C. for 1 minute. Total cycles, 30, post-treatment was then carried out at 72° C. for 10 minutes. […]
The size of the PCR products was determined by comparison to DNA fragments of a well-defined size; therefore, 5 μl of the DNA Ladder was carefully pipetted into the first well of the gel. […]

[4] = test system: SK-HEP-1 cells; assay: Protection from apoptosis induced by homocysteine (Caspase-3 activity); type: cell-based, Human; settings: 30 μM pre-treatment two hours, then 30 μM homocysteine two hours
Procedure: Caspase 3 is activated when cells undergo apoptosis. Caspase-3 assay is a standard for apoptosis assay. Homocysteine is a known inducer of apoptosis. Cells were cultured in 96-well plates for 24 hours and then treated with reagents under test conditions. Cytotoxic agents, H2O2 and etoposide were added to negative control wells. The assay was performed according to the manufacturer's protocol, as follows: Cells were re-suspended in 100 μl of clear media and 50 μl of Caspase-3 substrate solution was immediately added to each test well. […] Cell viability was determined by MTS® assay. […] Cell viability was determined by MTS® assay.

[5] = Decomposition of thiolatocobalamins in PBS at 37° C. monitored by UV/Vis spectrophotometry; type: physicochemical; settings: decomposition in PBS at 37° C.
Procedure: The decomposition of GSCbl, NACCbl, and HcyCbl in PBS at 37° C. was monitored by UV/Vis spectrophotometry.

[6] = test system: SK-HEP-1 cells; settings: human, 2 h
Procedure: Cell viability was determined by MTS® assay. […] Cell viability was determined by MTS® assay.

[7] = test system: SK-HEP-1 cells; assay: Effect of high concentrations of NACCbl and GSCbl on SK-HEP-1 cells (MTS assay); type: cell-based, Human; set-up: cell viability (MTS), raw readings (FIG. 13): reference not given here; settings: 24 hours; for cell viability (MTS), raw readings (FIG. 13): 3 replicates
[8] = test system: SK-HEP-1 cells; assay: Protection of endothelial cells from H2O2-induced cell death (MTS assay); type: cell-based, Human; settings: 2 hours pre-incubation, then 25 μM H2O2 24 hours
Procedure: The effect of increasing concentrations of NACCbl and GSCbl to protect endothelial cells from the effect of H2O2 was assessed. […] Cell viability was determined by MTS® assay. […] Cell viability was determined by MTS® assay. […] Cell viability was determined by MTS® assay.

[9] = target: T1, methionine synthase (Oryctolagus cuniculus, UniProt G1SXW3); settings: rabbit spleen extracts; cited from earlier work
T1 construct: methionine synthase activity in rabbit spleen extracts; from tissue; host or cells: rabbit spleen extracts
T1 sequence (G1SXW3 1-1218): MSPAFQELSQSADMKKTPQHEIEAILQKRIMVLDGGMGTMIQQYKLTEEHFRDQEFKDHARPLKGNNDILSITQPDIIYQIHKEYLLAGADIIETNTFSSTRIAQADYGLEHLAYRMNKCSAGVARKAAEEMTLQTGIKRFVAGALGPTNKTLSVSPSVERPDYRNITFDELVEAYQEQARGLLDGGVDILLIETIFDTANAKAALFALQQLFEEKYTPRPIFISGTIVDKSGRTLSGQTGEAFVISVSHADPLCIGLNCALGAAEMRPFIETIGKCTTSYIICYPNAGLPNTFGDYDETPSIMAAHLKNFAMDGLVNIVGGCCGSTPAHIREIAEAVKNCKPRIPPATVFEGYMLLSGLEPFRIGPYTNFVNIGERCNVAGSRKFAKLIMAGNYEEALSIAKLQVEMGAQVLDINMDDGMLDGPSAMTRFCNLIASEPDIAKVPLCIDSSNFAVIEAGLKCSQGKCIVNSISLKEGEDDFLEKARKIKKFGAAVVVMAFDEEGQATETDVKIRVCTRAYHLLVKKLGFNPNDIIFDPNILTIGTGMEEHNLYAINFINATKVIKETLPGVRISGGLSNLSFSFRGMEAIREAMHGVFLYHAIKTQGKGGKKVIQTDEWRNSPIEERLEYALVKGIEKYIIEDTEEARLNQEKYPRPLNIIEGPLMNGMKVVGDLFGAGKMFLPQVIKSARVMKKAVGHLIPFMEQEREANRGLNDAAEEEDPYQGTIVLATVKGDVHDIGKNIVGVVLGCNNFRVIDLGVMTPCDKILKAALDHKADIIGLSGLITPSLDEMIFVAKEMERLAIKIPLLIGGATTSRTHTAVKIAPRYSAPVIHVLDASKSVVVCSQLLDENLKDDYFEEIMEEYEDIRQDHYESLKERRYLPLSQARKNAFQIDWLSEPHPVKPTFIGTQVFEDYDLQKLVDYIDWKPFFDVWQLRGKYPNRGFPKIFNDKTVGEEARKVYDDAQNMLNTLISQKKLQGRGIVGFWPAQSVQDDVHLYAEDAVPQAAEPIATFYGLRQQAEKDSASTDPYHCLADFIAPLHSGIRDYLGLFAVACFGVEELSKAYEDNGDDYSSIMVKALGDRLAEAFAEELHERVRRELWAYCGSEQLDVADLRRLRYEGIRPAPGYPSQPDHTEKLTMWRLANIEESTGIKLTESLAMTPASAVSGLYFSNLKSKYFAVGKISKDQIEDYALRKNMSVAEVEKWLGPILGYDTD

[10] = test system: SK-HEP-1 cells; assay: NACCbl protection from homocysteine with Hsp32/Hsp70 inhibited by Sn(IX) protoporphyrin, quercitin or siRNA (MTS assay); type: cell-based, Human; settings: where named, NACCbl 30 μM pre-treatment two hours with/without Sn(IX)PP, quercetin, replicates 1-6, listed as Hcy
Source text: siRNAs for human HO-1 were synthesised in 2′-deprotected, duplexed, desalted and purified form by Dharmacon Research Inc., published sequences from Zhang et al., (Zhang, Shan et al. 2004). Human Hsp70 primers were from proprietary sequences, and all control non-targeting primer sequences were also synthesised by Dharmacon Research Inc.
Transfection was optimised using a standard siControl Tox protocol. All transfection experiments included non-targeted siRNA.
Cells were trypsinized and plated into 12- or 96-well plates at cell density of 2×10^5, then incubated for 24 hours until adherent. Complexed siRNA and transfection agent at 100 nm was added directly to each experimental well. Plates were incubated at 37° C. for 32.5 hours for mRNA gene analysis experiments or 72 hours for protein analysis by Western Blot.
Complexed siRNA and transfection agent was added to each well of either 12- or 96-well plates. Cells were then trypsinized and added directly into each test well at cell density of 2×10^5. Plates were incubated at 37° C. for 32.5 hours for mRNA gene analysis experiments or 72 hours for protein analysis by Western Blot.
Hsp32 was inhibited using either Sn (IX) protoporhyrin or using an siRNA which specifically knocks out Hsp32. Hsp70 was inhibited using quercitin or using an siRNA which specifically knocks out Hsp70. In addition, two methods were used to inhibit both Hsp32 and Hsp70: chemically Sn (IX) protoporphyrin plus quercitin was used; and then, directly, a combination of the siRNA for both genes was used simultaneously.

CC(=O)N[C@@H](CS)C(=O)O [NAC, N-Acetyl-L-Cysteine, reference compound]
Absorbance at 490 nm, Mean (n = 6) ([1]; Conc. Hcy 3.125 (μM), NACCbl 30 μM, NAC 75 μM): 1.897

O.O.O=c1c(O)c(-c2ccc(O)c(O)c2)oc2cc(O)cc(O)c12 [Quercitin, 2-(3,4-Dihydroxyphenyl)-3,5,7-trihydroxy-4H-1-benzopyran-4-one dihydrate]
effect on Hsp32 gene expression [2]: does not inhibit Hsp32 gene expression
effect on Hsp70 gene expression [3]: inhibits Hsp70 gene expression

C=CC1=C(C)c2cc3[n-]c(cc4[n-]c(cc5nc(cc1n2)C(C)=C5C=C)c(C)c4CCC(=O)O)c(CCC(=O)O)c3C.[Cl-].[Cl-].[Sn+4] [Sn (IX) protoporphyrin, 8,13-Bis(vinyl)-3,7,12,17-tetramethyl-21H,23H-porphine-2,18dipropionic acid tin(IV) dichloride]
effect on Hsp32 gene expression [2]: inhibited

CN1c2c(nc(N)[nH]c2=O)NC[C@@H]1CNc1ccc(C(=O)N[C@@H](CCC(=O)O)C(=O)O)cc1 [folate, 5-Methyltetrahydrofolic acid disodium salt]
protection against apoptosis induced by homocysteine [4]: partial protection
effect on Hsp32 gene expression [2]: increase in expression
effect on Hsp70 gene expression [3]: increase in expression

CC1=C2N=C(C=C3N=C(C(C)=C4[N-]C(C(CC(N)=O)C4(C)CCC(=O)NCC(C)OP(=O)([O-])OC4C(CO)OC(n5cnc6cc(C)c(C)cc65)C4O)C4(C)N=C1C(CCC(N)=O)C4(C)CC(N)=O)C(CCC(N)=O)C3(C)C)C(CCC(N)=O)C2(C)CC(N)=O.NC(CC[S-])C(=O)O.[Co+3] [HcyCbl, D,L-homocysteinyl-cobalamin]
t1/2 [5]: 6.6 h

OO [H2O2, Hydrogen peroxide]
concentration achieving greater than 90% death [6]: 12.5 µM
concentration sufficient to kill cultured endothelial cells (P<0.001) [6]: ≥ 3 μm

C/C1=C2N=C(/C=C3N=C(/C(C)=C4\[N-]C(C(CC(N)=O)C4(C)CCC(=O)NCC(C)OP(=O)([O-])OC4C(CO)OC(n5cnc6cc(C)c(C)cc65)C4O)C4(C)N=C1C(CCC(N)=O)C4(C)CC(N)=O)C(CCC(N)=O)C\3(C)C)C(CCC(N)=O)C/2(C)CC(N)=O.NC(CCC(=O)NC(C[S-])C(=O)NCC(=O)O)C(=O)O.[Co+3] (stereo not drawn) [GSCbl, Glutathionylcobalamin, reference compound]
protection against apoptosis induced by homocysteine [4]: total protection
survival ([1]; 30 μM cobalamin pre-incubation two hours, then 50 μM homocysteine two hours): ~60%
concentration required for >80% survival protection ([1]; 2 hours pre-incubation, then 30 μM homocysteine 24 hours): 50 µM
protection against homocysteine-induced damage compared with free thiols ([1]; Hcy 30 μM, NAC 45, GSH 100, NACCbl 12.5, GSCbl 15 μM, with or without folate 25 μM): superior to the free thiols
effect on Hsp32 gene expression [2]: induce Hsp32
cell death compared with NACCbl ([7]; above 0.2 mM concentration): caused greater cell death than NACCbl
cell viability (MTS), raw readings (FIG. 13) ([7]; compound conc. 0.61 (μM scale)): 2.554 and 2.376 and 2.53
cell viability (MTS), raw readings (FIG. 13) ([7]; compound conc. 1.22 (μM scale)): 2.347 and 2.433 and 2.503
cell viability (MTS), raw readings (FIG. 13) ([7]; compound conc. 2.441 (μM scale)): 2.527 and 2.434 and 2.46
cell viability (MTS), raw readings (FIG. 13) ([7]; compound conc. 4.882 (μM scale)): 2.543 and 2.528 and 2.519
cell viability (MTS), raw readings (FIG. 13) ([7]; compound conc. 9.765 (μM scale)): 2.532 and 2.476 and 2.42
cell viability (MTS), raw readings (FIG. 13) ([7]; compound conc. 19.531 (μM scale)): 2.553 and 2.476 and 2.42
cell viability (MTS), raw readings (FIG. 13) ([7]; compound conc. 39.062 (μM scale)): 2.492 and 2.484 and 2.468
cell viability (MTS), raw readings (FIG. 13) ([7]; compound conc. 78.125 (μM scale)): 2.444 and 2.406 and 2.402
cell viability (MTS), raw readings (FIG. 13) ([7]; compound conc. 156.25 (μM scale)): 2.407 and 2.37 and 2.318
cell viability (MTS), raw readings (FIG. 13) ([7]; compound conc. 312.5 (μM scale)): 2.306 and 2.204 and 2.138
cell viability (MTS), raw readings (FIG. 13) ([7]; compound conc. 625 (μM scale)): 2.197 and 1.912 and 1.787
cell viability (MTS), raw readings (FIG. 13) ([7]; compound conc. 1250 (μM scale)): 1.973 and 1.846 and 1.71
cell viability (MTS), raw readings (FIG. 13) ([7]; compound conc. 2500 (μM scale)): 1.775 and 1.81 and 1.896
cell viability (MTS), raw readings (FIG. 13) ([7]; compound conc. 5000 (μM scale)): 1.728 and 1.67 and 1.623
cell viability (MTS), raw readings (FIG. 13) ([7]; compound conc. 10000 (= 10 mM)): 1.322 and 1.342 and 1.366
concentration required to achieve >80% survival [8]: 100 µM
t1/2 [5]: No decomposition within 20 hours
promotion of methionine synthase activity [9]: more active than other cobalamins in promoting methionine synthase activity

NC(CCS)C(=O)O (racemic) [Homocysteine, DL-Homocysteine]
concentration achieving greater than 90% death [6]: 25 µM
concentration that killed cells (p<0.001) [6]: ≥ 5 µM
Absorbance at 490 nm, Mean (n = 6) ([1]; Conc. Hcy 200.000 (μM), NACCbl 30 μM, NAC 75 μM): 0.360
normalized cell viability (MTS), percent, mean of 6 ([1]; Conc. Hcy 200.000, NACCbl 30 μM, NAC 75 μM): −0.033
Absorbance at 490 nm (n = 6) ([1]; Conc. of Hcy 25.000, NACCbl 30 μM, NAC 75 μM): 0.740
Absorbance at 490 nm (n = 6) ([1]; Conc. of Hcy 50.000, NACCbl 30 μM, NAC 75 μM): 0.770
Absorbance at 490 nm (n = 6) ([1]; Conc. of Hcy 100.000, NACCbl 30 μM, NAC 75 μM): 0.510
Absorbance at 490 nm (n = 6) ([1]; Conc. of Hcy 200.000, NACCbl 30 μM, NAC 75 μM): 0.330 and 0.390
effect on Hsp32 gene expression [2]: increase in expression
cell viability (MTS), raw readings (FIG. 11) ([10]; Hcy 25 (μM) two hours): 0.74
cell viability (MTS), raw readings (FIG. 11) ([10]; Hcy 50 (μM) two hours): 0.77
cell viability (MTS), raw readings (FIG. 11) ([10]; Hcy 100 (μM) two hours): 0.51
cell viability (MTS), raw readings (FIG. 11) ([10]; Hcy 200 (μM) two hours): 0.33 and 0.39
effect on Hsp70 gene expression [3]: increase in expression
